Measurements from patent US20080194575A1, “Treatment for non-alcoholic-steatohepatitis” (priority 2006, published 2008).

Experiments:
Assay type in all cases: in vivo, C56BL/6 mice
[1] = High sucrose diet (HSD) induced obesity in mice: body weight gain and abdominal fat; settings: HSD 4 weeks, compound A 30 mg/kg daily subcutaneous
Protocol: (§1) Animals, feeding and treatments Two groups of 8 week old male C56BL/6 mice were set under a high sucrose containing diet together with 1% Orotic acid (HSD) for 4 weeks (TD 02366, Tekland Mills) (Feldstein et al. J Hepatol, 39:978-983(2003)). All animals were purchased from Jackson Laboratories and were treated and handled following the National Academy of Sciences criteria (NIH publication 86-23 revised 1985). One group of animals received a daily subcutaneous injection of compound A at a concentration of 30 mg/kg (compound A) and the second group received vehicle with the same frequency (Vehicle). Additionally, a third group of mice was fed under a normal chow diet (control).

[2] = Serum analysis after fasting in HSD fed mice: blood glucose, serum insulin (insulin resistance); settings: HSD 4 weeks, compound A 30 mg/kg daily subcutaneous
Protocol: as §1
(§2) Serum analysis Blood was taken from mice after fasting and glucose levels were measured with Ascensia Elite sensor (Bayer). Serum Insulin (Linco Research) and Adiponectin (R&D systems) levels were quantified by ELISA.

[3] = tested on: HSD induced hepatic steatosis; experiment: Histological evaluation of HSD induced hepatic steatosis (H&E semiquantitative score, Oil-Red-O staining); settings: HSD 4 weeks
Protocol: as §1
(§3) Histological evaluation Livers from mice were harvested and after fixation with formaldehyde embedded in paraffin for further histological evaluation. Hematoxylin & Eosin staining was performed in liver sections and steatosis was assessed following a semiquantitative scoring system. Oil red 0 staining was performed to evidence the presence of intracellular lipds. Liver fibrosis was determined by Sirius Red which stains collagen fibres. Scoring of fibrosis was performed following the Brunt system. Additionally, immunohistochemistry (IHC) was performed on cryosections for the polyclonal anti-P65 (A) antibody, dilution 1/50 and anti-TNFα antibody, dilution 1/20 (both from Santa Cruz Biotechnology Inc.). […]

NF-κB = experiment: HSD induced NF-κB activation in liver (I-κBα western blot, p65 immunohistochemistry); settings: HSD 4 weeks, compound A 30 mg/kg daily subcutaneous
Protocol: as §1, §3

IL-6 = IL-6 expression in liver by Real Time RT-PCR; settings: HSD 4 weeks, compound A 30 mg/kg daily subcutaneous, HSD/vehicle vs HSD/compound A (FIG. 3A)
Protocol: as §1
(§4) RNA isolation and quantitative Real Time PCR RNA from frozen liver tissue was extracted with PeqGOLD-RNAPure kit (Peqlab). First strand synthesis was performed with Oligo dT primers and reverse transcription with M-MLV Reverse Transcriptase (Invitrogen Corp.) Quantitative Real Time PCR was performed with the AbbyPrism 7300 Real-Time PCR system from Applied Biosystems by using SYBR Green Reagent (Applied biosystems). Real time reactions were performed twice in triplicates. All values were normalized to the level of GAPDH. Primer sequences are detailed in Table 1.

TNF = TNF expression in liver by Real Time RT-PCR; settings: HSD 4 weeks, compound A 30 mg/kg daily subcutaneous, HSD/vehicle vs HSD/compound A (FIG. 3B)
Protocol: as §1, §4

adiponectin = experiment: Serum and liver adiponectin expression by ELISA; settings: after 4 weeks of HSD, compound A 30 mg/kg daily subcutaneous
Protocol: as §1, §2

PPARα = PPARα expression in liver (real time RT-PCR, western blot); settings: HSD 4 weeks
Protocol: as §1
(§5) Western blot analysis Whole liver protein extracts were obtained by using ice- cold buffer (20 mM Tris pH 7.5, 150 mM NaCl, 1 mM EGTA, 1 mM EDTA, 1% Triton X-100, 2.5 mM sodium pyrophosphate and cocktail of protease inhibitors). […]
as §4, with “Real time reactions were performed twice in triplicates. All values were normalized to the level of GAPDH. Primer sequences are detailed in Table 1.” left out

CPT-1 = CPT-1 mRNA expression in liver by real time RT-PCR; settings: HSD 4 weeks, compound A 30 mg/kg daily subcutaneous, vs vehicle (FIG. 4B)
Protocol: as §1, §4

Acyl-CoA oxidase (ACOX) = Acyl-CoA oxidase (ACOX) mRNA expression in liver by real time RT-PCR; settings: HSD 4 weeks, compound A 30 mg/kg daily subcutaneous, vs vehicle (FIG. 4C)
Protocol: as §1, §4

PPARγ = PPARγ expression in liver on the mRNA and protein level; settings: HSD 4 weeks
Protocol: as §1, §5
as §4, with “Real time reactions were performed twice in triplicates. All values were normalized to the level of GAPDH. Primer sequences are detailed in Table 1.” left out

[4] = tested on: fatty acid translocase/CD36; experiment: Fatty acid translocase/CD36 gene expression in liver by real time RT-PCR; settings: HSD 4 weeks, compound A 30 mg/kg daily subcutaneous (FIG. 4E)
Protocol: as §1, §4

[5] = tested on: Cytochrome P450 2E1 (CYP2E1); experiment: CYP2E1 mRNA expression in liver by real time RT-PCR; settings: HSD 4 weeks, compound A 30 mg/kg daily subcutaneous (FIG. 5A)
Protocol: as §1, §4

MnSOD = MnSOD mRNA expression in liver by real time RT-PCR; settings: HSD 4 weeks, compound A 30 mg/kg daily subcutaneous, vs vehicle and chow controls (FIG. 5B)
Protocol: as §1, §4

Catalase = Catalase mRNA expression in liver by real time RT-PCR; settings: HSD 4 weeks, compound A 30 mg/kg daily subcutaneous, vs vehicle and chow controls
Protocol: as §1, §4

Caspase-3 = Caspase-3 activity in whole liver extracts (Ac-DEVD-AMC); settings: HSD 4 weeks, compound A 30 mg/kg daily subcutaneous (FIG. 6A)
Protocol: as §1
(§6) Detection of apoptosis Apoptotic cell death was determined in liver tissue by using two difference strategies. Caspase-3 activity was analysed in whole liver extracts. Proteins were extracted with the lysis buffer containing 1M Hepes, 10% CHAPS, 0.5 EDTA, 1 m DTT and 0.1 M pefa-block and further incubated with the fluorescent substrate Ac-DEVD-AMC (Biomol). The enzymatic activity was then measured at λ. excitation 390 nm and λ emission 510 nm and the result was corrected with the protein concentration. Additionally, we performed a TUNEL assay on frozen liver sections using the “In situ cell death detection Kit, POD” (Roche Diagnostics Corp.) following manufacturer's instructions.

hepatocyte apoptosis = experiment: TUNEL assay on frozen liver sections (hepatocyte apoptosis); settings: HSD 4 weeks, compound A 30 mg/kg daily subcutaneous
Protocol: as §1, §6

[6] = tested on: HSD induced liver fibrosis; experiment: Liver fibrosis by Sirius red staining, Brunt score; settings: HSD 4 weeks
Protocol: as §1, §3

[7] = compound A 30 mg/kg daily subcutaneous, vs HSD/vehicle

For `CC(=O)N1CCN(C(=O)c2ccc(Nc3nccc(-c4ccc(Cl)cc4)n3)cc2)CC1` [compound A, 1-(4-{4-[4-(4-Chloro-phenyl)-pyrimidin-2-ylamino]-benzoyl}-piperazin-1-yl)-ethanone], which “fat accumulation in the abdominal cavity” value ([1]; macroscopical, vs vehicle and chow control) is on record?
The value was “less amount of fat that was not significantly different compared to control chow mice”.

What about the body weight gain ([1]; vs HSD/vehicle (FIG. 1A)) of the same compound?
The body weight gain was “significant weight gain was observed in vehicle treated mice after 4 weeks of HSD feeding compared to compound A treated mice”.

And the serum insulin levels ([2]; ELISA, vs HSD/vehicle (FIG. 1C))?
The serum insulin levels was “roughly significantly less blood insulin that HSD/vehicle treated animals (p=0.06)”.

What about the blood glucose levels ([2]; fasted, HSD/vehicle vs HSD/compound A (FIG. 1B)) of the same compound?
Its blood glucose levels is “blood glucose levels were significantly higher in this group compared to animals treated with either HSD/compound A”.

And the “fat deposits in liver (Oil-Red-O staining)” value ([3]; compound A 30 mg/kg daily subcutaneous)?
The value was “only minor microvesicular fat dropples could be observed in some of the HSD/compound A mice analysed”.

And the “liver histology / steatosis (H&E staining)” value ([3]; compound A 30 mg/kg daily subcutaneous (FIG. 2))?
The value was “liver histology similar to chow control animals with no clear evidence of fat accumulation”.

What about the “I-κBα levels, western blot of whole liver extracts” value (NF-κB; lower levels in HSD/vehicle) of the same compound?
Its value is “I-κBα was clearly present in HSD/compound A”.

What about the “NF-κB activation, p65 immunohistochemistry on liver sections” value (NF-κB; strong activation in HSD/vehicle) of the same compound?
Its value is “stainings were practically negative in HSD/compound A”.

What about the “IL-6 mRNA expression” value (IL-6) of the same compound?
Its value is “upregulation of IL-6 and TNF mRNA expression was found compared to the HSD/compound A”.

What about the “TNF mRNA expression” value (TNF) of the same compound?
Its value is “upregulation of IL-6 and TNF mRNA expression was found compared to the HSD/compound A”.

And the “adiponectin expression in serum” value (adiponectin; vs chow controls (FIG. 3C))?
Its value is “no significant change in adiponectin expression”.

And the “adiponectin expression in liver” value (adiponectin; vs chow controls (FIG. 3D))?
Its value is “no significant change in adiponectin expression”.

What about the “PPARα protein, western blot” value (PPARα; [7]) of the same compound?
The value was “higher presence of PPARα in livers from HSD/compound A mice than in HSD/vehicle animals”.

What about the “PPARα mRNA expression” value (PPARα; real time RT-PCR, compound A 30 mg/kg daily subcutaneous (FIG. 4A)) of the same compound?
The value was “significantly higher expression in liver from HSD fed mice treated with compound A”.

What about the “CPT-1 mRNA expression” value (CPT-1) of the same compound?
Its value is “up-regulated in livers from mice that received the compound A compared to vehicle treated animals”.

What about the “ACOX mRNA expression” value (Acyl-CoA oxidase (ACOX)) of the same compound?
The value was “up-regulated in livers from mice that received the compound A compared to vehicle treated animals”.

What about the “PPARγ mRNA expression” value (PPARγ; compound A 30 mg/kg daily subcutaneous (FIG. 4D)) of the same compound?
Its value is “upregulated in livers derived from these animals”.

And the “PPARγ protein expression, western blot” value (PPARγ; [7])?
Its value is “more pronounced presence in compound A mice”.

And the CD36 gene expression [4]?
Its CD36 gene expression is “upregulated in HSD/compound A mice”.

And the “CYP2E1 mRNA expression” value [5]?
Its value is “reduced HSD induced upregulation of CYP2E1 and its expression was not significantly different than the chow control group”.

What about the “MnSOD mRNA expression” value (MnSOD) of the same compound?
The value was “significantly higher in compound A treated animals compared to vehicle treated mice and chow controls”.

And the “Catalase mRNA expression” value (Catalase)?
Its value is “significantly higher in compound A treated animals compared to vehicle treated mice and chow controls”.

And the “caspase 3 activity” value (Caspase-3)?
The value was “strongly reduced caspase 3 activity to a level as found in chow control mice”.

What about the TUNEL-positive cells (hepatocyte apoptosis) of the same compound?
Its TUNEL-positive cells is “increase in TUNEL-positive cells, which could be blocked using compound A”.

What about the “fibrosis score according to Brunt score” value ([6]; compound A 30 mg/kg daily subcutaneous, HSD/vehicle score 1.6) of the same compound?
Its value is “virtually zero”.

And the “liver collagen expression (Sirius red staining)” value ([6]; liver sections, compound A 30 mg/kg daily subcutaneous (FIG. 6B))?
The value was “no significant degree of collagen expression could be detected”.
